Experimental data from US10085955B2, “Methods and compositions for treatment of demyelinating diseases” (Pathologica LLC, priority 2013, dated 2018).
Entries after “also recorded” stand apart in the source; their conditions may differ.

Legend:
[1] = test system: PGE2 production in carrageenan air pouch; test: Carrageenan air pouch model; assay type: in vivo, Lewis rats
From the text: Injection of air subcutaneously will induce the formation of a connective tissue cavity lined with cells that resemble and function like a synovial lining. This method is commonly known as the Air Pouch Model and is a useful animal model of inflammation that can be generated in a relatively short period of time. The air pouch may be created by subcutaneous (SQ) injection of a volume of sterile air in the dorsal neck region. The model may be used to test the efficacy and potency of compounds such as polyamine analogues and polyamine biosynthesis inhibitors such as MGBG in reducing various cellular and biochemical indicators of inflammation when administered as an oral (PO) gavage administration. Healthy Male Lewis rats (Charles River Laboratories, Wilmington, Mass.) weighing between 175-200 g were used. […] A correction factor of 1.49 was used to account for the dihydrochloride salt/monohydrate form of MGBG. […] Air pouches were formed on the dorsum of the rats during the last 4 days of MGBG or vehicle administration prior to carrageenan injection. Briefly, rats were anesthetized with isoflurane, during which dorsal hair was removed and 20 mL of sterile air was injected subcutaneously into the intrascapular region. Pouches were allowed to develop for the next 4 days, with re-inflation (to maintain pouch volume) of pouches 1 day prior to carrageenan injection. One hour prior to carrageenan injection, animals were given their last dose of drug (MGBG, vehicle, naproxen, or dexamethasone). A 1% suspension of carrageenan (2 mL; FMC BioPolyer, Philadelphia, Pa.) suspended in saline was injected into the pouch cavity. At either 3 hours or 24 hours post-carrageenan injection, rats were euthanized by CO2 asphyxiation and 2.5 mL of PBS (Sigma Chemical, St. Louis, Mo.) was injected directly into the pouch. The pouch was opened with surgical scissors and the pouch fluid was collected using a transfer pipette. One aliquot was collected for measurement of total cell count with differential, and the other aliquot for PGE2 determination. […]

CNS-infiltrating cells = test: Second MOG EAE protocol, flow cytometric analysis of CNS-infiltrating cells; assay type: in vivo, C57BL/6 mice; conditions: second study
Method: A second EAE experiment was run substantially as disclosed above, except that fingolimod was dosed at 1 mpk QD, and the pertussis toxin was administered at 165 ng/dose for both injections.
In addition to clinical scoring, flow cytometric analysis was performed on CNS-infiltrating cells from 6 mice in each of the vehicle-, fingolimod- and MGBG-treated groups, as well as in all three mice from the mock-immunized (disease-free) group.
On Day 28, the brain and spinal cord tissue (from 6 of 12 mice from each of the MOG-immunized groups; and from all 3 mice from the mock-immunized group) in the second MOG EAE study were […] infiltrating cells were isolated by Percoll gradient. After isolating infiltrating cells from each mouse separately, cells were placed in culture with phorbol myristate acetate (PMA, 50 ng/mL), ionomycin (0.5 μg/mL) and brefeldin (1 μg/mL) and incubated for 4-5 hours. The cells were then washed and stained for flow cytometric analysis, as specified below. The following analyses were performed (Becton Dickinson FACScan):
Anti-CD4-Cy-5/anti-IL-17A-PE/anti-IFNγ-FITC (Th1/Th17 cells)
Anti-CD4-Cy-5/anti-CD11c-PE/anti-CD45.2-FITC (infiltrating dendritic cells)
Anti-CD11b-Cy-5/anti-IL-12-PE/anti-CD45.2-FITC (M1 macrophages)
Anti-CD11b-Cy-5/anti-CD206-PE/anti-IL-10-FITC (M2 macrophages)
The number of cells positive for relevant stains and stain combinations was computed both as a percentage of the analyzed cells and as the average number of cells per mouse for each group.

[2] = Day 28, raw numbers of cells, fingolimod 1 mg/kg QD, MGBG 30 mg/kg BID
[3] = Day 28, fingolimod 1 mg/kg QD, MGBG 30 mg/kg BID

CC(/C=N/NC(=N)N)=N\NC(=N)N [MGBG, 1,1′ [methylethanediylidene]dinitrilodiguanidine]
production of PGE2 (inflammatory and basal levels) ([1]; rat pouch fluid, 3 or 24 hours post-carrageenan, naproxen 10 mg/kg, dexamethasone 1 mg/kg): selectively inhibited peak inflammatory production of PGE2, without affecting basal levels
efficacy, changes relative to control indicative of reduced inflammation ([1]; rats, MGBG 1-60 mg/kg PO once daily 6 days): efficacious
CD4+ IFNy+ cells (CNS-infiltrating cells; [2]): 20.40 +/− 10^3
CD4+ IL-17A+ cells (CNS-infiltrating cells; [2]): 23.55 +/− 10^3
CD4+ cells (CNS-infiltrating cells; [2]): 152.11 +/− 10^3
CD11b+ CD206+ cells (CNS-infiltrating cells; [2]): 1.92 +/− 10^3
CD11b+ IL10+ cells (CNS-infiltrating cells; [2]): 3.37 +/− 10^3
CD11b+ cells (CNS-infiltrating cells; [2]): 137.88 +/− 10^3
CD45.2 high CD4− CD11c+ cells (CNS-infiltrating cells; [2]): 11.90 +/− 10^3
CD45.2 high CD11b− IL12+ cells (CNS-infiltrating cells; [2]): 0.21 +/− 10^3
IL12+ cells (CNS-infiltrating cells; [2]): 0.89 +/− 10^3
# of IL12+ cells (10^3) (CNS-infiltrating cells; [3]): 0.89 +/− 10^3
% CD4+ IFNγ+ cells (CNS-infiltrating cells; [3]): 15.85%
% CD11c+ of CD45.2 high CD4− cells (CNS-infiltrating cells; [3]): 7.21%
% CD206+ of CD11b+ cells (CNS-infiltrating cells; [3]): 1.39%
% IL10+ of CD11b+ cells (CNS-infiltrating cells; [3]): 2.37%
% IL12+ of CD45.2 high CD11b− cells (CNS-infiltrating cells; [3]): 0.06%
% IL-17A+ cells of CD4+ cells (CNS-infiltrating cells; [3]): 15.24%
% of CD4+ cells (CNS-infiltrating cells; [3]): 28.50%
% of CD11b+ cells (CNS-infiltrating cells; [3]): 27.86%
CNS CD11c+ dendritic cells (CNS-infiltrating cells; FIG. 8 A): reduces; also recorded: significantly reduced relative and absolute number
IL12+ dendritic cells / IL-12-producing cells (CNS-infiltrating cells; FIG. 8 B): reduces; also recorded: significantly reduced number
Th1 (CNS-infiltrating cells; FIG. 9 A): reduces
M1 macrophages (CNS-infiltrating cells; FIG. 9 B): reduces
